What was measured:
[1] = Storage stability of the isolated title compound; assay type: physicochemical; details: within 12 hours at −25° C.
Method: The title compound is instable and decomposes within 12 hours to 50% at −25° C. For this reason the title compound is further converted directly after the isolation.

[2] = tested on: Aβ plaques; assay: Detection of Aβ plaques by means of optical imaging (OI) in the mouse model; assay type: in vivo, transgenic APPPS1 mice and non-transgenic control mice
Method: Detection of Aβ Plaques by Means of Optical Imaging (OI) in the Mouse Model
The compound was formulated in physiological saline solution (0.9% NaCl) in a concentration of 0.05 mg/ml and intravenously injected into the mice. In the following the mice were examined by means of OI (Aequoria Hamamatsu Optical Imaging System), the signal was detected at 650 nm.
It is clear for the skilled person that this labeling can—depending on the kind of labeling—be realized by any method, such as OI, PET (e.g. with ^76Br, ^75Br or ^18F labeled compounds) or MRT (e.g. with ^19F labeled compounds).
The signal strength was quantified as a relative fluorescence signal, whereby 30 min after the injection was chosen as the reference point in time. The signal strength was calculated by percentage after the subtraction of the auto fluorescence (resulting in relative intensity values, Irel) and then the percentage difference between the transgenic and control mice—in the following referred to as specific binding (Bsp)—was calculated and plotted against the age of the transgenic mice (see FIG. 3). It turned out that there is a significant correlation between the age and the development of the Alzheimer's disease and the signal strength, where it was especially noted that the compound according to the invention has no saturation or ceiling effects in a way that the signal strength is not increasing at a specific concentration of Aβ plaques. To the contrary, at the age of 21 months for the transgenic mice a particularly strong signal has been measured.

[3] = tested on: Aβ plaques; assay: Detection of Aβ plaques by means of MRT and optical fluorescence measurements in the mice model; assay type: in vivo, transgenic APP23 mice and non-transgenic control mice; details: age 28 months, 2 mg/kg body weight
Text: Detection of Aβ Plaques by Means of MRT in the Mice Model
For the MRT measurements a threedimensional gradient echosequence (gre3D) which both comprises T1 as well as T2* parts, and a quantitative T2 value determination sequence (T2map) were used.
The observations made in vivo could also be confirmed ex vivo after a preparation of the brains.

Oc1ccc2c(c1)N(CCBr)CCO2 [Example 13A, 4-(2-Bromoethyl)-3,4-dihydro-2H-benzo[b][1,4]oxazin-6-ol]
decomposition on storage [1]: 50%

CCN1CCOc2cc3c(cc21)Oc1cc2c(cc1=N3)OCC[N+]=2CC[18F] [Example 3, [F-18]-8-Ethyl-4-(2-Fluoroethyl)-3,8,9,10-tetrahydro-2H-bis([1,4]-oxazino)[2,3-b:3′,2′-i]phenoxazin-4-ium chloride]
binding to Aβ plaques (summary of OI examinations) ([2]; in vivo, OI): selectively binds to Aβ plaques | accumulation in control mice (OI signal) ([2]; non-transgenic control mice, 0.1 mg/kg body weight i.v., signal at 650 nm, FIG. 1): no accumulation could be detected | accumulation in transgenic mice (OI signal) ([2]; transgenic APPPS1 mice, 0.1 mg/kg body weight i.v., signal at 650 nm, FIG. 1 (age 12 months, 120 min after injection)): specifically accumulates in transgenic mice | enrichment as a function of the age of the transgenic mice ([2]; transgenic APPPS1 mice, 0.1 mg/kg i.v., OI): increases with the age of the transgenic mice | enrichment in transgenic mice of an age of 2 months ([2]; transgenic APPPS1 mice, age 2 months, 0.1 mg/kg i.v., OI, FIG. 2): no enrichment can be detected | enrichment in transgenic mice at the age of 12 months ([2]; transgenic APPPS1 mice, age 12 months, 0.1 mg/kg i.v., OI, FIG. 2): a significant enrichment can be seen

CCN1CCOc2cc3c(cc21)Oc1cc2c(cc1=N3)OCC[N+]=2CC[19F] [Example 1, 8-Ethyl-4-(2-fluoroethyl)-3,8,9,10-tetrahydro-2H-bis([1,4]oxazino)[2,3-b:3′,2′-i]phenoxazin-4-ium chloride]
enrichment in control mice (MRT and fluorescence) ([3]; non-transgenic control mice): neither for the MRT measurements nor the fluorescence measurements a specific enrichment | enrichment in transgenic mice (MRT and fluorescence) ([3]; transgenic APP23 mice, measurement period 90 minutes): a specific enrichment in the transgenic mice could be detected

From patent publication US9796730B2, “Halogenated benzoxazines and their use” (priority 2012, dated 2017)
